Data published in US4677110A, “N-benzoyl-N'-pyrimidinyloxyphenyl urea compounds, and antitumorous compositions containing them” (Ishihara Sangyo Kaisha Ltd., priority 1984, dated 1987).

Experiments:
[1] = test system: p-388 leukemia cells; experiment: Test Example 1: antitumour activity, intraperitoneal-intraperitoneal, p-388 leukemia in BDF1 mice; assay type: in vivo; conditions: i.p., one day and four days after i.p. inoculation, 30 days observation
Description: (Intraperitoneal-intraperitoneal) To BDF1 mice, p-388 leukemia cells were intraperitoneally inoculated in an amount of 1×10^6 cells/mouse. A test drug was intraperitoneally administered twice, i.e. one day and four days after the inoculation. […] The ratio (%) of median survival time of test and control animals was obtained with the number of survival days of mice of the control group to which a physiological saline was administered, being evaluated as 100. The comparative drugs were dispersions obtained by adding small amounts of surfactants (e.g. Tween-80) to the comparative compounds. The drugs of the present invention were those prepared in accordance with Formulation Example 4 given hereinafter. | Note: MST^1 Ratio of median survival time of test and control animals

[2] = test system: p-388 leukemia cells; experiment: Test Example 2: antitumour activity, intraperitoneal-oral, p-388 leukemia in BDF1 mice; assay type: in vivo; conditions: one day and four days after i.p. inoculation, 30 days observation
From the text: (intraperitoneal-oral) To BDF1 mice, p-388 leukemia cells were intraperitoneally inoculated in an amount of 1×10^6 cells/mouse. A test drug was orally administered twice i.e. one day and four days after the inoculation. […] The test drugs and comparative drugs were formulated in accordance with Formulation Example 4 given hereinafter. | Notes: MST^1 is as defined above.

[3] = test system: ddY mice; experiment: Acute toxicity, oral administration; assay type: in vivo; conditions: 12.5 mg/kg oral, ddY mice (10 animals), Formulation Example 4
Description: (§1) To ddY mice (10 animals), a drug containing the Compound No. 1 or No. 2 of the present invention formulated in accordance with Formulation Example 4 was orally administered in an amount of the compound of 12.5 mg/kg, whereupon no mice died.

[4] = Acute toxicity, oral administration; assay type: in vivo; conditions: mouse, in vivo; oral, ddY mice, Formulation Example 4
Description: as §1

[5] = Acute toxicity, intraperitoneal administration; conditions: mouse, in vivo, ip, ddY mice, suspension with Tween-80
Description: as §1
On the other hand, a similar test was conducted by intraperitoneally administering a suspension obtained by adding a small amount of a surfactant (Tween-80) to the Compound No. 3 of the present invention, to the same mice, whereby the LD50 values were from 50 to 100 mg/kg.

## O=C(NC(=O)c1ccccc1Cl)Nc1ccc(Oc2ncc(I)cn2)c(Cl)c1 [Comparative Compound No. 3, N-(2-chlorobenzoyl)-N'-[3-chloro-4-(5-iodo-2-pyrimidinyloxy)phenyl]urea]
[1]; 100 mg/kg/day
  T/C (%) of MST (ratio of median survival time of test and control animals): 236.8%

## O=C(NC(=O)c1ccccc1Cl)Nc1ccc(Oc2ncc(Cl)cn2)c(Cl)c1 [Comparative Compound No. 2, N-(2-chlorobenzoyl)-N'-[3-chloro-4-(5-chloro-2-pyrimidinyloxy)phenyl]urea]
[1]; 200 mg/kg/day
  T/C (%) of MST (ratio of median survival time of test and control animals): 183.9%

## O=C(NC(=O)c1ccccc1Br)Nc1ccc(Oc2ncc(I)cn2)c(Cl)c1 [Comparative Compound No. 4, N-(2-bromobenzoyl)-N'-[3-chloro-4-(5-iodo-2-pyrimidinyloxy)phenyl]urea]
[1]; 100 mg/kg/day
  T/C (%) of MST (ratio of median survival time of test and control animals): 165%

## O=C(NC(=O)c1ccccc1[N+](=O)[O-])Nc1ccc(Oc2ncc(Cl)cn2)c(C(F)(F)F)c1 [Compound No. 2, N-(2-nitrobenzoyl)-N'-[4-(5-chloro2-pyrimidinyloxy)-3-trifluoromethylphenyl]urea]
[1]; 3.125 mg/kg/day
  T/C (%) of MST (ratio of median survival time of test and control animals): 160%
[2]; 6.25 mg/kg/day
  T/C (%) of MST (ratio of median survival time of test and control animals): 167%
[3]
  mortality: no mice died
[4]
  LD50: ≥ 12.5 mg/kg

## O=C(NC(=O)c1ccccc1[N+](=O)[O-])Nc1ccc(Oc2ncc(Br)cn2)c(C(F)(F)F)c1 [Compound No. 1, N-(N2-nitrobenzoyl)-N'-[4-(5-bromo-2-pyrimidinyloxy)-3-trifluoromethylphenyl]urea]
[1]; 3.125 mg/kg/day
  T/C (%) of MST (ratio of median survival time of test and control animals): 153%
[2]; 6.25 mg/kg/day
  T/C (%) of MST (ratio of median survival time of test and control animals): 186%
[3]
  mortality: no mice died
[4]
  LD50: ≥ 12.5 mg/kg

## O=C(NC(=O)c1ccccc1[N+](=O)[O-])Nc1ccc(Oc2ncc(I)cn2)c(C(F)(F)F)c1 [Compound No. 3, N-(2-nitrobenzoyl)-N'-[4-(5-iodo-2-pyrimidinyloxy)-3-trifluoromethylphenyl]urea]
[5]
  LD50: 50 to 100 mg/kg

## O=C(NC(=O)c1ccccc1[N+](=O)[O-])Nc1ccc(Oc2ncc(I)cn2)c(Cl)c1 [Comparative Compound No. 1, N-(2 nitrobenzoyl)-N'-[3-chloro-4-(5-iodo-2-pyrimidinyloxy)phenyl]urea]
[1]; 12.5 mg/kg/day
  T/C (%) of MST (ratio of median survival time of test and control animals): 171%
[1]; 25 mg/kg/day
  T/C (%) of MST (ratio of median survival time of test and control animals): 230%
[2]; 400 mg/kg/day
  T/C (%) of MST (ratio of median survival time of test and control animals): 116%
[2]; 800 mg/kg/day
  T/C (%) of MST (ratio of median survival time of test and control animals): 143%
[2]; 1600 mg/kg/day
  T/C (%) of MST (ratio of median survival time of test and control animals): 186%
